Measured values taken from patent US7157491B2, “Aryl-carbaldehyde oxime derivatives and their use as estrogenic agents” (Wyeth, priority 2003, dated 2007).
pIC50: −log10 of the molar value.

Legend:
human ERβ = biological target: T1, human ERβ (Homo sapiens, UniProt Q92731); assay: Competition with [3H]-17β-estradiol for binding to ERβ ligand binding domain (E. coli lysate); conditions: 2 nM [3H]-17β-estradiol, 5-15 hours at room temperature; concentration that decreases total 17β-estradiol binding by 50%
T1 construct: made in house; host or cells: E. coli
T1 sequence (Q92731 264-498 limits assumed): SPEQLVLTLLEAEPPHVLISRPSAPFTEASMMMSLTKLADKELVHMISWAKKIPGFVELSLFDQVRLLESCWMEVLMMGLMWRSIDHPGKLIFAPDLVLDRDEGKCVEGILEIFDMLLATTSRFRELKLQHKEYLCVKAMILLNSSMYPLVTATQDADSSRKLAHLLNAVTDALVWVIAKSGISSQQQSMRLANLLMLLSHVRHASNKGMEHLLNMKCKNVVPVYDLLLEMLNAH
Method: (§1) Representative examples of the invention were evaluated for their ability to compete with 17β-estradiol for both ERα and ERβ. This test procedure provides the methodology for one to determine whether a particular compound binds to the estrogen receptor (and is therefore “estrogenic”) and whether there is selectivity for ERα or ERβ. […] 17β-estradiol is included as a standard reference for comparison. The procedure used is briefly described below. A crude lysate of E. coli expressing the estrogen receptor ligand binding domains (D, E, & F) of human ERα or ERβ was prepared. Both receptors and compounds were diluted in 1× Dulbecco's PBS (DPBS) supplemented with 1 mM EDTA. Using a high binding masked microtiter plate, 100 uL of receptor (1 uG/well) was combined with 2 nM [^3H]-17β-estradiol and various concentrations of compound. After between 5 and 15 hours at room temperature, the plates were washed with DPBS/1 mM EDTA and bound radioactivity determined by liquid scintillation counting.

human ERα = biological target: T2, human ERα (Homo sapiens, UniProt P03372); assay: Competition with [3H]-17β-estradiol for binding to ERα ligand binding domain (E. coli lysate); conditions: 2 nM [3H]-17β-estradiol, 5-15 hours at room temperature; concentration that decreases total 17β-estradiol binding by 50%
T2 construct: made in house; host or cells: E. coli
T2 sequence (P03372 311-547 limits assumed): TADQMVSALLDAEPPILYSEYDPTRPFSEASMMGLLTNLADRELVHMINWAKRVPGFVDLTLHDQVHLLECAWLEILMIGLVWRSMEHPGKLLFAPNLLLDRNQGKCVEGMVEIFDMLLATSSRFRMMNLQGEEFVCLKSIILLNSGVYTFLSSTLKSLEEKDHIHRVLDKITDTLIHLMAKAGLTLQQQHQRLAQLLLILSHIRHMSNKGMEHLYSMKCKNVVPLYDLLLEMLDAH
Method: as §1

Row | Compound | melting point [°C] | pIC50 (human ERβ) | pIC50 (human ERα)
1 | ON=Cc1ccc(-c2ccc(O)cc2)c2ccccc12 [Example 3, 4-(4-Hydroxyphenyl)-1-naphthaldehyde oxime] | 200 to 200.5 | – | –
2 | ON=Cc1ccc(-c2ccc(O)c(F)c2)c2ccccc12 [Example 6, 4-(3-Fluoro-4-hydroxyphenyl)-naphthalene-1-carbaldehyde oxime] | 187 to 188 | – | –
3 | ON=Cc1ccc(-c2ccc(O)cc2)c2ccsc12 [Example 12, 4-(4-Hydroxyphenyl)-1-benzothiophene-7-carbaldehyde oxime] | 229.5 to 230.5 | – | –
4 | ON=Cc1ccc(-c2ccc(O)cc2)c2sccc12 [Example 19, 7-(4-Hydroxyphenyl)-1-benzothiophene-4-carbaldehyde oxime] | 230 to 231 | – | –
5 | ON=Cc1ccc(-c2ccc(O)cc2)c2occc12 [Example 25, 7-(4-Hydroxyphenyl)-1-benzofuran-4-carbaldehyde oxime] | 216 to 217 | – | –
6 | ON=Cc1ccc(-c2ccc(O)cc2)c2ccoc12 [Example 31, 4-(4-Hydroxyphenyl)-benzofuran-7-carbaldehyde oxime] | 219 to 220 | – | –
7 | ON=Cc1cc(-c2ccc(O)cc2)cc2ccoc12 [Example 37, 5-(4-Hydroxyphenyl)-1-benzofuran-7-carbaldehyde oxime] | – | 6.49 | 5.49
8 | ON=Cc1cc(-c2ccc(O)cc2)c2occc2c1 [Example 43, 7-(4-Hydroxyphenyl)-benzofuran-5-carbaldehyde oxime] | 192 to 194 | 5.66 | < 5.30
